Patent publication EP4559911A1, “NOVEL HETEROCYCLIC COMPOUND AND PHARMACEUTICAL COMPOSITION FOR INHIBITING AUTOTAXIN COMPRISING THE SAME” (Nextgen Bioscience Co., Ltd., priority 2022, dated 2024)

Molecular target: human Autotaxin protein (Homo sapiens, UniProt Q13822)
Assay: Evaluation of the inhibitory activity against human Autotaxin protein (18:1 LysoPC substrate, choline assay kit, absorbance at 570 nm)
Assay type: biochemical
Details: compound at 500nM; 2 hours at 37 °C; % inhibition = (1 - absorbance test group / absorbance control group) X 100
Method in brief: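 Human autotaxin (20 μL of 240 nM stock) was reacted with sonicated 18:1 LysoPC (10 μL of 360 μM stock) in Tris pH 8.0 buffer with BSA for 2 h at 37 °C, using 6 compound concentrations from 5-fold dilution. Released choline was detected via choline oxidase/dye probe (30 min), read as absorbance at 570 nm. % inhibition was calculated relative to control.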

SMILES	inhibition at 0.5 µM [%]
Fc1cc2c(cc1F)CC(Nc1ncc(-c3nnc(N4CC(c5nnn[nH]5)C4)o3)cn1)C2 [Example 68, 5-(5-(3-(1H-tetrazol-5-yl)azetidin-1-yl)-1,3,4-oxadiazol-2-yl)-N-(5,6-difluoro-2,3-dihydro-1H-inden-2-yl)pyrimidin-2-amine]	17.6
CC1(c2c[nH]nn2)CN(c2nnc(-c3cnc(NC4Cc5ccccc5C4)nc3)o2)C1 [Example 69, N-(2,3-dihydro-1H-inden-2-yl)-5-(5-(3-methyl-3-(1H-1,2,3-triazol-4-yl)azetidin-1-yl)-1,3,4-oxadiazol-2-yl)pyrimidin-2-amine]	95.4
COc1ccc2c(c1)CC(Nc1ncc(-c3nnc(N4CC(c5cn(COC(=O)C(C)(C)C)nn5)C4)o3)cn1)C2 (stereo not drawn) [Example 70, (4-(1-(5-(2-((5-methoxy-2,3-dihydro-1H-inden-2-yl)amino)pyrimidin-5-yl)-1,3,4-oxadiazol-2-yl)azetidin-3-yl)-1H-1,2,3-triazol-1-yl)methyl pivalate]	9.6
COc1ccc2c(c1)CC(Nc1ncc(-c3nnc(N4CC(c5c[nH]nn5)C4)o3)cn1)C2 (stereo not drawn) [Example 71, 5-(5-(3-(1H-1,2,3-triazol-4-yl)azetidin-1-yl)-1,3,4-oxadiazol-2-yl)-N-(5-methoxy-2,3-dihydro-1H-inden-2-yl)pyrimidin-2-amine]	95.5
CC(C)(C)C(=O)OCn1cc(C2CN(c3nnc(-c4cnc(NC5Cc6nccnc6C5)nc4)o3)C2)nn1 [Example 72, (4-(1-(5-(2-((6,7-dihydro-5H-cyclopenta[b]pyrazin-6-yl)amino)pyrimidin-5-yl)-1,3,4-oxadiazol-2-yl)azetidin-3-yl)-1H-1,2,3-triazol-1-yl)methyl pivalate]	3.1
CC(C)(C)C(=O)OCn1cc(C2CN(c3nnc(-c4cnc(NC5Cc6cccnc6C5)nc4)o3)C2)nn1 (stereo not drawn) [Example 73, (4-(1-(5-(2-((6,7-dihydro-5H-cyclopenta[b]pyridin-6-yl)amino)pyrimidin-5-yl)-1,3,4-oxadiazol-2-yl)azetidin-3-yl)-1H-1,2,3-triazol-1-yl)methyl pivalate]	1.2
c1cnc2c(n1)CC(Nc1ncc(-c3nnc(N4CC(c5c[nH]nn5)C4)o3)cn1)C2 [Example 74, N-(5-(5-(3-(1H-1,2,3-triazol-4-yl)azetidin-1-yl)-1,3,4-oxadiazol-2-yl)pyrimidin-2-yl)-6,7-dihydro-5H-cyclopenta[b]pyrazin-6-amine]	7.1

More lines, now with the values ahead:

inhibition at 0.5 µM [%]	SMILES
84.6	Cc1[nH]nnc1C1CN(c2nnc(-c3cnc(NC4Cc5cc(F)c(F)cc5C4)nc3)o2)C1 [Example 75, N-(5,6-difluoro-2,3-dihydro-1H-inden-2-yl)-5-(5-(3-(5-methyl-1H-1,2,3-triazol-4-yl)azetidin-1-yl)-1,3,4-oxadiazol-2-yl)pyrimidin-2-amine]
64	Fc1cc2c(cc1F)CC(Nc1ncc(-c3nnc(N4CC(c5c[nH]cn5)C4)o3)cn1)C2 [Example 76, 5-(5-(3-(1H-imidazol-4-yl)azetidin-1-yl)-1,3,4-oxadiazol-2-yl)-N-(5,6-difluoro-2,3-dihydro-1H-inden-2-yl)pyrimidin-2-amine]
43.7	c1cnc2c(c1)CC(Nc1ncc(-c3nnc(N4CC(c5c[nH]nn5)C4)o3)cn1)C2 (stereo not drawn) [Example 77, N-(5-(5-(3-(1H-1,2,3-triazol-4-yl)azetidin-1-yl)-1,3,4-oxadiazol-2-yl)pyrimidin-2-yl)-6,7-dihydro-5H-cyclopenta[b]pyridin-6-amine]
99.1	CC1(c2c[nH]nn2)CN(C(=O)/C=C/c2cnc(NC3Cc4cc(F)c(F)cc4C3)nc2)C1 [Example 78, (E)-3-(2-((5,6-difluoro-2,3-dihydro-1H-inden-2-yl)amino)pyrimidin-5-yl)-1-(3-methyl-3-(1H-1,2,3-triazol-4-yl)azetidin-1-yl)prop-2-en-1-one]
24.7	Fc1cc2c(cc1F)CC(Nc1ncc(-c3nnc(N4CC(n5cncn5)C4)o3)cn1)C2 [Example 79, 5-(5-(3-(1H-1,2,4-triazol-1-yl)azetidin-1-yl)-1,3,4-oxadiazol-2-yl)-N-(5,6-difluoro-2,3-dihydro-1H-inden-2-yl)pyrimidin-2-amine]
